The record followed here is ChEMBL document CHEMBL1201862, “PubChem BioAssay data set” (2004).

The source made the active and inactive calls.

Experiment [1] in a line: viability of BHK-21 cells – cell-based, secondary screen, cytotoxicity control for flavivirus guanylyltransferase probe project (AID 624078). It is filed as functional.
The next experiment concerns the target T1, Caspase-6 (Homo sapiens, UniProt P55212).
T1 sequence (P55212 whole entry): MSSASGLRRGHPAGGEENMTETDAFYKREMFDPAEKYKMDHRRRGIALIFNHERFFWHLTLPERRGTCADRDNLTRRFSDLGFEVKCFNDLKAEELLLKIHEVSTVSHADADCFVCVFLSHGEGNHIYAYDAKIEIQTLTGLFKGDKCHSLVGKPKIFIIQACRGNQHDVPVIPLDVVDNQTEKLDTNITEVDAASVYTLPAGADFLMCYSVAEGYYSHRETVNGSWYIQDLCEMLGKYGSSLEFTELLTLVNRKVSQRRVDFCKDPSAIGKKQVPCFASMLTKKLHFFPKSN
Kind of experiment: inhibition of CASP6 peptide cleavage – biochemical, VEID-R110 fluorescence, cherry-pick, dose response (AID 720632).

The target of experiment [2] is 72 kDa type IV collagenase (Homo sapiens, UniProt P08253). Nature of the experiment: Dose Response validation of uHTS RPN11 inhibitor hits using a MMP-2 Fluorescence assay. The experiment is classed as functional.
72 kDa type IV collagenase, sequence (P08253 whole entry, the tested form may be a part): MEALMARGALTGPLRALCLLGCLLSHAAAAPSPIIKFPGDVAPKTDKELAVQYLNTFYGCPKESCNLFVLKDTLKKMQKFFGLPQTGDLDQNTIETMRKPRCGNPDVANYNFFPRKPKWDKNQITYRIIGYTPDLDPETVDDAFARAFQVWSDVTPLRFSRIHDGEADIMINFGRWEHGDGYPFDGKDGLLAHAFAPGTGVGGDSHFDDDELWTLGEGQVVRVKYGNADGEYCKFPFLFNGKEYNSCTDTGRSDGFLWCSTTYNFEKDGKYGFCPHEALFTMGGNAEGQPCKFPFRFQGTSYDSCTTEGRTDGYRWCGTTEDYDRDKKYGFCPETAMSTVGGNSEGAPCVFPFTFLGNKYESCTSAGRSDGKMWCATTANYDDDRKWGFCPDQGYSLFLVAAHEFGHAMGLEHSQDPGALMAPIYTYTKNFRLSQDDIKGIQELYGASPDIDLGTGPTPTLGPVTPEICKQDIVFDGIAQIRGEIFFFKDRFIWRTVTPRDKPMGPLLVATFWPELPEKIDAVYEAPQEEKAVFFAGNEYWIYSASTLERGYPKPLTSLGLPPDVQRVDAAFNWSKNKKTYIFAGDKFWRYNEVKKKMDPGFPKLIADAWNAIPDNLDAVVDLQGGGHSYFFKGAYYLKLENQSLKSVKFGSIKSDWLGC
Experiment [3] deals with T2, Carboxy-terminal domain RNA polymerase II polypeptide A small phosphatase 1 (Homo sapiens, UniProt Q9GZU7).
T2 sequence (Q9GZU7 whole entry): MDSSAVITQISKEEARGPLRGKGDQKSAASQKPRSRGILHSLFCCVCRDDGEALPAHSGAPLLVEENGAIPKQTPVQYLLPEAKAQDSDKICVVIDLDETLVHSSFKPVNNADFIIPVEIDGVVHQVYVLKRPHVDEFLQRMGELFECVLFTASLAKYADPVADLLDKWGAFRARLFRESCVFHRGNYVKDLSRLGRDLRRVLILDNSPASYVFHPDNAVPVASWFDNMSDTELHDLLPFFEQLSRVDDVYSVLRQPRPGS
Nature of the experiment: CTDSP1 inhibitors, concentration-response, biochemical, absorbance readout, ultra-high-throughput screen actives (AID 540297). The experiment is classed as functional.

A further experiment concerns the target Prothrombin (Bos taurus, UniProt P00735). Kind of experiment: thrombin protease inhibitors – biochemical, fluorescence polarization, uHTS hits, dose response (AID 602369). The experiment is classed as functional. In general terms: Polarisation of emitted light reports the rotation of a fluorescent probe.
Experiment [4] concerns the target 26S proteasome non-ATPase regulatory subunit 14 (Homo sapiens, UniProt O00487). Kind of experiment: inhibition of proteasome subunit RPN11 – biochemical, fluorescence polarization, uHTS hits, confirmation (AID 602368). It is filed as functional.
Experiment [5] concerns the target T3, Small ubiquitin-related modifier 1 (Homo sapiens, UniProt P63165). Nature of the experiment: SUMO1 protein interaction blockers, potency – biochemical, fluorescence polarization, uHTS hits, dose response (AID 624382). It is filed as functional. The note with it: read-out: IC50_Mean.
Experiment [6] in a line: viability loss in THP-1 monocytes – THP-1 cells, cytotoxicity control for Vif-APOBEC3G degradation inhibitor project, dose response (AID 1117359). The experiment is classed as functional. As to conditions: THP-1.
The target of another experiment is Caspase-8 (Homo sapiens, UniProt Q14790). Kind of experiment: inhibitors of purified CASP8 protease – biochemical, Z-IETD-R110 fluorescence, cherry-picked samples, selectivity assay for caspase-6 inhibitor project, dose response (AID 743294).
Caspase-8, sequence (Q14790 217-374 limits assumed): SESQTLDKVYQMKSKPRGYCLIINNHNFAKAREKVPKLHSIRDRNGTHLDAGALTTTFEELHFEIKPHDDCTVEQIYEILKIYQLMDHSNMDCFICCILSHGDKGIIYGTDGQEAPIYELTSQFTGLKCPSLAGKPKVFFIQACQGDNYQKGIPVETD
Caspase-8, sequence (Q14790 385-479 limits assumed): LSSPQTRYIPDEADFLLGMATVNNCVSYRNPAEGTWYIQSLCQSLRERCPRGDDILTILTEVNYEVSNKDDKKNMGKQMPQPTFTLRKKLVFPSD
Experiment [7] has as its target DNA (cytosine-5)-methyltransferase 1 (Homo sapiens, UniProt P26358). Kind of experiment: inhibition of DNA methylation by DNMT1 – biochemical, fluorescent molecular beacon, confirmation (AID 602386). It is filed as functional.
The target of a further experiment is Caspase-7 (Homo sapiens, UniProt P55210). Kind of experiment: caspase-7 enzyme inhibition, selectivity check – biochemical, DEVD-R110 fluorescence, cherry-pick, selectivity assay for caspase-6 inhibitor project, dose response (AID 743295). The experiment is classed as functional.
Caspase-7, sequence (P55210 24-198 limits assumed): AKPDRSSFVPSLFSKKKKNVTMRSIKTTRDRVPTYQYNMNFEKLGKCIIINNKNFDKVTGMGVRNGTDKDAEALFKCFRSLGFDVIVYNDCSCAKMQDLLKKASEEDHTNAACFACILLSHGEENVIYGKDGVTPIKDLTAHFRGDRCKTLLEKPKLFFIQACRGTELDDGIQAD
Caspase-7, sequence (P55210 207-303 limits assumed): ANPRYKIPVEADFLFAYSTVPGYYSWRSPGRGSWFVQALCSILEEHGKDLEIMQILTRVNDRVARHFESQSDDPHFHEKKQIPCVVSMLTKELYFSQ
The target of experiment [8] is T3, Small ubiquitin-related modifier 1. Kind of experiment: SUMO1 protein-protein binding blockers, potency – biochemical, FRET, dose response (AID 624383). The experiment is classed as functional. As to conditions: read-out: IC50_Mean.
A short description of experiment [9]: toxicity to human hepatoma HepG2 cells – cell-based, cherry-picked samples, cytotoxicity control, dose response (AID 1159577). It is filed as functional.
Experiment [10] can be described thus: activation of miR-122 Renilla sensor silencing – cell-based, Huh7 psiCHECK-miR122, Renilla luciferase, cherry-picked, dose response (AID 651956).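 Also: huh7 hepatoma cells stably carrying a psiCHECK-2 miR-122 sensor plasmid; renilla luciferase signal reporting endogenous miR-122 activity after 48 h compound exposure.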 It is filed as functional.
The nature of experiment [11]: P. falciparum Dd2 growth inhibitors, dose response, SYBR Green, cherry-picked samples (AID 1159567). The experiment is classed as functional, cell-based.
The nature of experiment [12]: viability loss in HEK293 kidney cells – cell-based, cherry-picks, set 5, cytotoxicity control, dose response (AID 1053117). The experiment is classed as functional.
Experiment [13] is described as follows: EF1alpha-driven Renilla reporter with control 3'UTR suppression – Clone20-Shn3RL cells, dual-Glo, cherry-pick, set 2, counter-screen for Shn3 3'UTR targeting project, dose response (AID 720724). The note with it: Dual-Go Shn3RL. It is filed as functional, cell-based. (In general: A counterscreen serves to expose hits that act by an unwanted route or on another target.)

Experiment [14] concerns the target T4, Heat shock factor protein 1 (Mus musculus, UniProt P38532).
T4 sequence (P38532 whole entry): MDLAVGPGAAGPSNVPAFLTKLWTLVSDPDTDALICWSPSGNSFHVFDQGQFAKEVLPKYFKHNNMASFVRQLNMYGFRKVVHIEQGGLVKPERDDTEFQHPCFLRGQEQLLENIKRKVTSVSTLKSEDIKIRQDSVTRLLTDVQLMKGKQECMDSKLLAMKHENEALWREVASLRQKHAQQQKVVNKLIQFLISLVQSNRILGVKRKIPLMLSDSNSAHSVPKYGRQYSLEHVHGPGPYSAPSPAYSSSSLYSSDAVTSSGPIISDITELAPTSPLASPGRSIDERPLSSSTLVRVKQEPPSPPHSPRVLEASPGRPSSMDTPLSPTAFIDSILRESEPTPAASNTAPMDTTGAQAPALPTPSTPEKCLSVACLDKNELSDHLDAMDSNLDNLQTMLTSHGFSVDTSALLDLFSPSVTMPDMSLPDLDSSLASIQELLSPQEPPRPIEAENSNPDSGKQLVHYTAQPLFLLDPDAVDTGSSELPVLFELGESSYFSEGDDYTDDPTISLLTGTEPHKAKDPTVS
Nature of the experiment: enhancement of HSF1-driven luciferase signal – cell-based, NIH3T3, luminescence, dose retest, confirmation (AID 435004).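 Also: stress induced by proteasome inhibitor MG132 added 30 min after compound; luciferase reporter driven by HSF1 response element in NIH3T3 cells; actives raise luminescence as potentiators of the MG132 stress response.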 The experiment is classed as functional.

Experiment [15] has as its target Heat shock protein HSP 90-alpha (Homo sapiens, UniProt P07900). It is filed as functional, organism-based.
Experiment [16] concerns the target T5, Short transient receptor potential channel 4 (Mus musculus, UniProt Q9QUQ5).
T5 sequence (Q9QUQ5 whole entry): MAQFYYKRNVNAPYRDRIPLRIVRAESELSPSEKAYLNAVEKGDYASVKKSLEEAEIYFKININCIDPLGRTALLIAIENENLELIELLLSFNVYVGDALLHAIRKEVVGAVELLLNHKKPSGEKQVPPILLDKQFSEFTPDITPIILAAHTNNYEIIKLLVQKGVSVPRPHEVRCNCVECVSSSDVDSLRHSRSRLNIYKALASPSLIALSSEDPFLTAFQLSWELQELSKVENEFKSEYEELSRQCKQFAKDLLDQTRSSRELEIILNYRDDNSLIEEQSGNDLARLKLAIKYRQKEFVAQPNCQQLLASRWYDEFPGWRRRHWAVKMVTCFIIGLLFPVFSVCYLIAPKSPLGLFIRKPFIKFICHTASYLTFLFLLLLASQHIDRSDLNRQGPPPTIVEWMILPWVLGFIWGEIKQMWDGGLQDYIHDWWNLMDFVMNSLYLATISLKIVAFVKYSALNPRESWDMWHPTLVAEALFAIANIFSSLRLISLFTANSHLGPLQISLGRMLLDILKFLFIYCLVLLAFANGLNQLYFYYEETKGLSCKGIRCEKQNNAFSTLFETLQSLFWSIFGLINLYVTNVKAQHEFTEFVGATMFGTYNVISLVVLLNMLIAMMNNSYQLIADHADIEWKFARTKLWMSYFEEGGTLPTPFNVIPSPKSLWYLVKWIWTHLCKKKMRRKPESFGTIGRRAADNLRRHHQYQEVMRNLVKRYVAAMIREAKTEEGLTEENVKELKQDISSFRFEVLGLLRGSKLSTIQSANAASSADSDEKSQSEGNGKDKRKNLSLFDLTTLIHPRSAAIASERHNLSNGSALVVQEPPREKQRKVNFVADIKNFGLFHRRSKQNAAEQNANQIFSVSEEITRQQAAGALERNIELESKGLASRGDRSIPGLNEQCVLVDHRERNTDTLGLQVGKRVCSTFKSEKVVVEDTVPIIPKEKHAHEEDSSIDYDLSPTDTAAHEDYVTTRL
Kind of experiment: calcium entry via TRPC4 opening agents – cell-based, HEK293 TRPC4/mu-opioid, Fluo-4 calcium, dose response (AID 434937). The experiment is classed as functional.

Experiment [17] in a line: reduction of Shn3 3'UTR-driven luciferase in osteoblasts – cell-based, Clone20 osteoblasts, firefly luciferase, cherry-picked, dose response (AID 624132).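 Also: firefly luciferase luminescence from reporter carrying the Shn3 3'UTR in osteoblasts.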 It is filed as functional.

T3 sequence (P63165 whole entry): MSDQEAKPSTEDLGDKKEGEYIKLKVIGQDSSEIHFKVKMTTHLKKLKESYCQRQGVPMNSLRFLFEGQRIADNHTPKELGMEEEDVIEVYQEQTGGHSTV
26S proteasome non-ATPase regulatory subunit 14, sequence (O00487 whole entry): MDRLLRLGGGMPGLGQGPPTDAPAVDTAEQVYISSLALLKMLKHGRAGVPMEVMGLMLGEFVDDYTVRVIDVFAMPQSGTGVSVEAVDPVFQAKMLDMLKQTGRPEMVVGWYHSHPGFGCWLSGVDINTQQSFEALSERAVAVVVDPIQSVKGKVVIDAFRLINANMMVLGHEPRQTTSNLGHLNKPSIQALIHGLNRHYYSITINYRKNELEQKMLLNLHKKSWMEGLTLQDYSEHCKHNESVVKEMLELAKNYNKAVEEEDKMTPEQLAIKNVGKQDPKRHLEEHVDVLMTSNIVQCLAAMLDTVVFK
DNA (cytosine-5)-methyltransferase 1, sequence (P26358 whole entry): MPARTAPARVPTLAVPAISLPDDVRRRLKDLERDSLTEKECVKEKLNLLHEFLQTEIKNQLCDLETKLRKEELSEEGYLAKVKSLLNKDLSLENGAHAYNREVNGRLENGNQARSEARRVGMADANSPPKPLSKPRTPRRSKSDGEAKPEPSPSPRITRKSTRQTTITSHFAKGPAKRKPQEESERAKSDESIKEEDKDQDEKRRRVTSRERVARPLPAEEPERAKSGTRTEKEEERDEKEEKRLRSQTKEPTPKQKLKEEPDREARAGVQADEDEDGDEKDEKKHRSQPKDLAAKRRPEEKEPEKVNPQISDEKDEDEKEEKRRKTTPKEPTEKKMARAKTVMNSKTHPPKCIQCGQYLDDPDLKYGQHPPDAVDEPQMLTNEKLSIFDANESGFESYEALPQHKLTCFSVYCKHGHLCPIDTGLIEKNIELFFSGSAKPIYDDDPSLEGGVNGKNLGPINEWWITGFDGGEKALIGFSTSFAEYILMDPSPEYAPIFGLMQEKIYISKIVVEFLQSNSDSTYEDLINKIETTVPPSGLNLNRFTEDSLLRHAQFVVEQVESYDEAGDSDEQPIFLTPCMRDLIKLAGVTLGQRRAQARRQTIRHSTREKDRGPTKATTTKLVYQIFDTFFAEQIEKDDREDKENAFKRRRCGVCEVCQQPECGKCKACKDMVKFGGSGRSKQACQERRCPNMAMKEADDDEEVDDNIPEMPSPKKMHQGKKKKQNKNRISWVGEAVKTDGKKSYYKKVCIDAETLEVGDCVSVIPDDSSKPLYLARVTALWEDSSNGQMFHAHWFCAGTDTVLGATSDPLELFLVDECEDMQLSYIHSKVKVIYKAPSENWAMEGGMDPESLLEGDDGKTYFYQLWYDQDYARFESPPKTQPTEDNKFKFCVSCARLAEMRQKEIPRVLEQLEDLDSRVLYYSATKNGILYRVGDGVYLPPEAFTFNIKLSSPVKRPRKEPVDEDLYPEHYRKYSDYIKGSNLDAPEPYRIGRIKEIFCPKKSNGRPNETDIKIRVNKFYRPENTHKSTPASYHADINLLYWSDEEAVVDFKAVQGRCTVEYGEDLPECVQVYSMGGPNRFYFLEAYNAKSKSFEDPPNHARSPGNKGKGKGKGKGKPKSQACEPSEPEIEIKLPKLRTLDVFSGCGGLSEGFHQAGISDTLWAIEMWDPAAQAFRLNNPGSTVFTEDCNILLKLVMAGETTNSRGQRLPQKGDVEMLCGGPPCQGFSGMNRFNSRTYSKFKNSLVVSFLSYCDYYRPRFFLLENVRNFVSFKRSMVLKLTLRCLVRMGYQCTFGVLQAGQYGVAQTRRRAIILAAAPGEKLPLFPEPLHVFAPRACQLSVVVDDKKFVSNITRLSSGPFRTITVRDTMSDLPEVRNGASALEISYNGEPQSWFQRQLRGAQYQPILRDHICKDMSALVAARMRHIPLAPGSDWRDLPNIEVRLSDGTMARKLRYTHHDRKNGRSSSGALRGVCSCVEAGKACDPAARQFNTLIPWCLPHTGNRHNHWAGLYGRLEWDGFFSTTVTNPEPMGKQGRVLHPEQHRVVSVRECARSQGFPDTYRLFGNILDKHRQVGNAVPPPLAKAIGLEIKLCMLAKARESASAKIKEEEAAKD

Take `O=[N+]([O-])c1cccc(S(=O)(=O)Nc2cc(Sc3nc4ccccc4s3)c(O)c3ccccc23)c1`: the CC50 in experiment [1] was 11.5 µM (active).
In the case of `Cc1ccc(NC(=O)CN(C)C(=O)c2cccc(-n3cccc3)c2)cc1`, the AC50 on Caspase-6 is 1.5 µM (active); at Caspase-8, > 70 µM (inactive); at Caspase-7, > 70 µM (inactive). Further, the IC50 is 18.4 µM (active) in [2]; 5.68 µM (active) in [3]; 86.9 µM (active) on Prothrombin; 11 µM (active) in [4]; > 66.6 µM (inactive) in [5]; 9.26 µM (active) in experiment [7]. Moreover, the IC50 in [8] is 5.95 µM (active). For the same compound, the CC50 in experiment [6] is > 40 µM (active).
Regarding `CO[C@@H]1CN(C)C(=O)c2cc(NC(=O)Nc3ccc(Cl)c(Cl)c3)ccc2OC[C@H](C)NC[C@H]1C`, the AC50 in experiment [9] was 7.83 µM (active); in [10], 24.8 µM (active); in experiment [11], 6.4 µM (active); in experiment [12] it was > 52 µM (inactive).
Consider `O=C1S/C(=C\c2ccc(N3CCOCC3)o2)C(=O)N1Cc1c(F)cccc1Cl`, for which the AC50 was 42.1 µM (active) in experiment [13], 18.5 µM (active) in experiment [15] and 6.72 µM (active) in experiment [17]. For the same compound, the EC50 was > 260 µM (inactive) in [14] and 6.68 µM (active) in experiment [16].

One may read the CC50 as the concentration at which the toxic effect on the cells reaches its halfway point. As usually defined, the AC50 is the midpoint of the concentration-response curve, whichever way the signal moves. A word on the EC50: it is the concentration giving half of the maximal effect.
